Legend:
Type in all cases: binding
TspTS = target: T1, TspTS (Trichinella spiralis, UniProt Q9NDD3); assay: X-ray crystal structure, co-crystal, […] Å; conditions: co-crystallized with meTHF, pH 7.1; covalent to Cys189 Sγ via pyrimidine C(6); bound form reduced at C(5); no folate seen
T1 construct: gene ts; recombinant, non-phosphorylated fraction; dimer; catalytic Cys189; residues 18-307 modelled in part

mTS = target: T2, mTS (Mus musculus, UniProt P07607); assay: X-ray crystal structure, co-crystal soaked with meTHF, […] Å; conditions: pH 6.7; folate derivative also bound; active site of both subunits, non-covalent
T2 construct: gene Tyms; recombinant, non-phosphorylated fraction for crystals; dimer; catalytic Cys189; residues 21-307 modelled

CeTS = target: T3, CeTS (Caenorhabditis elegans, UniProt Q9Y052); assay: X-ray crystal structure, soaked crystal, […] Å; conditions: apoenzyme crystal soaked with 36 mM ligand ca. 80 min, pH 5.6; no folate; active site of both subunits, non-covalent
T3 construct: recombinant, non-phosphorylated fraction; dimer; catalytic Cys197; residues 24-312 modelled
T3 sequence (Q9Y052 entry or part of it): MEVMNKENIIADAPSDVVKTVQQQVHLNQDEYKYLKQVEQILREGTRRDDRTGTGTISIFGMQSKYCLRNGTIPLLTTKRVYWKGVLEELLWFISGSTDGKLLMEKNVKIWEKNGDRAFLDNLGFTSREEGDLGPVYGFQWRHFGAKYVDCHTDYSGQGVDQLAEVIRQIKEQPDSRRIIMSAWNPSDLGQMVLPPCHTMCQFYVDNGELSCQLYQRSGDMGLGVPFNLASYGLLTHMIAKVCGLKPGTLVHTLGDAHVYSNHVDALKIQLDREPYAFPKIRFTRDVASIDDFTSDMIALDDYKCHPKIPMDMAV

T1 sequence (Q9NDD3 entry or part of it): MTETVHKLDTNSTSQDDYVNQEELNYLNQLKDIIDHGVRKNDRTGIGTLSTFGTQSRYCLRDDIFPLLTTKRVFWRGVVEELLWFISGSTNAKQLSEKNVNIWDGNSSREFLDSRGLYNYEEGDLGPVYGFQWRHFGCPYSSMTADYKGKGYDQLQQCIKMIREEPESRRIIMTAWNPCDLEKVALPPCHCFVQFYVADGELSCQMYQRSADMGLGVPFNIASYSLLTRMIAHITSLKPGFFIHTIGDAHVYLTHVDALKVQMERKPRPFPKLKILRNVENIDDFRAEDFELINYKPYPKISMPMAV
T2 sequence (P07607 whole entry, the tested form may be a part): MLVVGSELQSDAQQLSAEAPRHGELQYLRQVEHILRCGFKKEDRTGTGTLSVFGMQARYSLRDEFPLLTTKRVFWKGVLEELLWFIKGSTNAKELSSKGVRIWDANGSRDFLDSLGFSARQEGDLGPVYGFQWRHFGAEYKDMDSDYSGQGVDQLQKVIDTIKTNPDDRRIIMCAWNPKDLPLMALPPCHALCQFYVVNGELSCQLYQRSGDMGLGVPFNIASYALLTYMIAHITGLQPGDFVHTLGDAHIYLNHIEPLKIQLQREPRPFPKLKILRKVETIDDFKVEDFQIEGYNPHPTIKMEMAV

O=c1nc(NO)ccn1[C@H]1C[C@H](O)[C@@H](COP(=O)(O)O)O1 [N^4-OH-dCMP, N^4-hydroxy-2′-deoxycytidine 5′-monophosphate]
X-ray crystal structure, co-crystal, 1.18 Å (TspTS): a clear electron density was present, identified as the N^4-OH-dCMP molecule
X-ray crystal structure, co-crystal soaked with meTHF, 2.13 Å (mTS): N^4-OH-dCMP molecules are modeled with full occupancy
X-ray crystal structure, soaked crystal, 2.8 Å (CeTS): with N^4-OH-dCMP molecules in both active sites refined with full occupancy
